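These data come from cells grown in 96-well plates and exposed to compound for 48 hours at five concentrations. The concentration for 50% growth inhibition is given as GI50. Definition used: TGI = concentration required for complete inhibition of growth.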
Assays:
Assay in all cases: NCI tumour cell line growth inhibition, 48 h
[1] = tested on: KM12 colon
[2] = tested on: OVCAR-5 ovarian
[3] = tested on: SR leukemia
[4] = tested on: SNB-75 CNS
[5] = tested on: MOLT-4 leukemia
[6] = tested on: SW-620 colon
[7] = tested on: NCI-H460 lung
[8] = tested on: SNB-78 CNS
[9] = tested on: COLO 205 colon
[10] = tested on: U251 CNS
[11] = tested on: HOP-62 NSCLC
[12] = tested on: LXFL 529 NSCLC
[13] = tested on: OVCAR-4 ovarian
[14] = tested on: K-562 leukemia
[15] = tested on: HOP-92 NSCLC
[16] = tested on: HCT-15 colon
[17] = tested on: ACHN renal
[18] = tested on: IGROV1 ovarian
[19] = tested on: HT29 colon
[20] = tested on: UO-31 renal
[21] = tested on: SF-268 CNS
[22] = tested on: SK-MEL-28 melanoma
[23] = tested on: SK-OV-3 ovarian
[24] = tested on: NCI-H522 lung
[25] = tested on: HCT-116 colon
[26] = tested on: UACC-62 melanoma
[27] = tested on: SF-295 CNS
[28] = tested on: 786-0 renal
[29] = tested on: DLD-1 colon
[30] = tested on: A549 NSCLC
[31] = tested on: RPMI-8226 leukemia
[32] = tested on: NCI-H226 lung
[33] = tested on: DMS 114 small cell lung
[34] = tested on: SK-MEL-2 melanoma
[35] = tested on: UACC-257 melanoma
[36] = tested on: M14 melanoma
[37] = tested on: NCI-H23 lung
[38] = tested on: KM20L2 colon
[39] = tested on: CAKI-1 renal
[40] = tested on: M19-MEL melanoma
[41] = tested on: OVCAR-3 ovarian
[42] = tested on: TK-10 renal
[43] = tested on: A498 renal
[44] = tested on: SK-MEL-5 melanoma
[45] = tested on: RXF 393 renal
[46] = tested on: HL-60(TB) leukemia
[47] = tested on: CCRF-CEM leukemia
[48] = tested on: SF-539 CNS
[49] = tested on: LOX IMVI melanoma
[50] = tested on: SN12C renal
[51] = tested on: HCC-2998 colon
[52] = tested on: OVCAR-8 ovarian
[53] = tested on: HOP-18 NSCLC

## NCCN.NCCN.O=C[O-].O=C[O-].[Co+3].[O-][Cl+3]([O-])([O-])[O-]
[1]
  GI50: > 100 µM
  TGI: > 100 µM
[2]
  GI50: > 100 µM
  TGI: > 100 µM
[3]
  GI50: > 100 µM
  TGI: > 100 µM
[4]
  GI50: > 100 µM
  TGI: > 100 µM
[5]
  GI50: > 100 µM
  TGI: > 100 µM
[6]
  GI50: > 100 µM
  TGI: > 100 µM
[7]
  GI50: > 100 µM
  TGI: > 100 µM
[8]
  GI50: > 100 µM
  TGI: > 100 µM
[9]
  GI50: > 100 µM
  TGI: > 100 µM
[10]
  GI50: > 100 µM
  TGI: > 100 µM
[11]
  GI50: > 100 µM
  TGI: > 100 µM
[12]
  GI50: > 100 µM
  TGI: > 100 µM
[13]
  GI50: > 100 µM
  TGI: > 100 µM
[14]
  GI50: > 100 µM
  TGI: > 100 µM
[15]
  GI50: > 100 µM
  TGI: > 100 µM
[16]
  GI50: > 100 µM
  TGI: > 100 µM
[17]
  GI50: > 100 µM
  TGI: > 100 µM
[18]
  GI50: > 100 µM
  TGI: > 100 µM
[19]
  GI50: > 100 µM
  TGI: > 100 µM
[20]
  GI50: > 100 µM
  TGI: > 100 µM
[21]
  GI50: > 100 µM
  TGI: > 100 µM
[22]
  GI50: > 100 µM
  TGI: > 100 µM
[23]
  GI50: > 100 µM
  TGI: > 100 µM
[24]
  GI50: > 100 µM
  TGI: > 100 µM
[25]
  GI50: > 100 µM
  TGI: > 100 µM
[26]
  GI50: > 100 µM
  TGI: > 100 µM
[27]
  GI50: > 100 µM
  TGI: > 100 µM
[28]
  GI50: > 100 µM
  TGI: > 100 µM
[29]
  GI50: > 100 µM
  TGI: > 100 µM
[30]
  GI50: > 100 µM
  TGI: > 100 µM
[31]
  GI50: > 100 µM
  TGI: > 100 µM
[32]
  GI50: > 100 µM
  TGI: > 100 µM
[33]
  GI50: > 100 µM
  TGI: > 100 µM
[34]
  GI50: > 100 µM
  TGI: > 100 µM
[35]
  GI50: > 100 µM
  TGI: > 100 µM
[36]
  GI50: > 100 µM
  TGI: > 100 µM
[37]
  GI50: > 100 µM
  TGI: > 100 µM
[38]
  GI50: > 100 µM
  TGI: > 100 µM
[39]
  GI50: > 100 µM
  TGI: > 100 µM
[40]
  GI50: > 100 µM
  TGI: > 100 µM
[41]
  GI50: > 100 µM
  TGI: > 100 µM
[42]
  GI50: > 100 µM
  TGI: > 100 µM
[43]
  GI50: > 100 µM
  TGI: > 100 µM
[44]
  GI50: > 100 µM
  TGI: > 100 µM
[45]
  GI50: > 100 µM
  TGI: > 100 µM
[46]
  GI50: > 100 µM
  TGI: > 100 µM
[47]
  GI50: > 100 µM
  TGI: > 100 µM
[48]
  GI50: > 100 µM
  TGI: > 100 µM
[49]
  GI50: > 100 µM
  TGI: > 100 µM
[50]
  GI50: > 100 µM
  TGI: > 100 µM
[51]
  GI50: > 100 µM
  TGI: > 100 µM
[52]
  GI50: > 100 µM
  TGI: > 100 µM
[53]
  GI50: > 100 µM
  TGI: > 100 µM

Reference: PubChem BioAssay (NCI)
